Entries after “also recorded” stand apart in the source; their conditions may differ.
Tests used:
[1] = tested on: chondrogenic differentiation of hMSCs; assay: Wet weight of chondrogenic micromass pellets; format: cell-based, human; conditions: 10 ng/mL TGF-β1 vs control; days 3, 7, 14 and 21
Experimental: (§1) In order to assess the effects of HS16+ve on the chondrogenic differentiation of hMSCs in vitro, it was first necessary to establish the effects of TGF-β1 alone. Chondrogenic differentiation was carried out using a modified micromass culture system. [Zhang, L., et al., Chondrogenic differentiation of human mesenchymal stem cells: a comparison between micromass and pellet culture systems. Biotechnol Lett, 2010. 32(9): p. 1339-1346.]. Briefly, passage 4 hMSCs were harvested and resuspended in chemically defined chondrogenic media (PT-3003, Lonza, MD, USA) at 2×10^7 cells/mL. Droplets of 12.5 μL were then seeded into the middle of each well in a 24-well plate and left to adhere at 37° C. for 2 h, after which, 500 μL of chondrogenic media supplemented with either 1 or 10 ng/mL of TGF-β1 (100-210, PeproTech) alone or with either 5 or 10 μg/mL of heparin (Sigma-Aldrich), porcine mucosal HS (HSPM) (Celsus laboratories), HS16+ve or HS16-ve was added to each well. The cell droplets coalesced into spherical masses after 24 h. Media was changed every 3 days and the micromasses harvested on days 3, 7, 14 and 21.
Wet weights of the resulting control (Ctrl) and TGF-β1-treated (10 ng/mL) (TGF-β1) micromass pellets were taken at days 3, 7, 14 and 21 (FIG. 15).

[2] = tested on: chondrogenic differentiation of hMSCs; assay: qPCR of chondrogenic micromass pellets (Example 2); format: cell-based, human
Experimental: Total RNA was isolated from chondrogenic micromass pellets using TRIZOL reagent (Life Technologies, CA, USA) according to the manufacturer's protocol. Reverse transcription was carried out on 1 μg RNA using the SuperScript® VILO™ cDNA Synthesis Kit (Life Technologies) following the manufacturer's instructions, with the incubation at 42° C. being carried out for 2 h instead of 1 h. Each qPCR contained 40 ng cDNA, 1 μL TaqMan® primer-probe mix per gene, and 10 μL Taqman® Fast Universal PCR Master Mix (Life Technologies) in a final volume of 20 μL. Thermal cycling conditions were 95° C. for 20 s, followed by 45 cycles of 95° C. for 1 s and 60° C. for 20 s. Each qPCR was run in duplicate and gene expression was normalised to HPRT1 expression to obtain the ΔCt value. The average value of biological triplicates was taken. Chondrogenic micromass pellets cultured in media without GAG or TGF-β1 were used as controls (ΔΔCt). Relative expression levels for each primer set were expressed as fold changes by the 2-ΔΔCt method [Livak, K. J. and T. D. Schmittgen, Analysis of Relative Gene Expression Data Using Real-Time Quantitative PCR and the 2-ΔΔCT Method. Methods, 2001. 25(4): p. 402-408]. The following TaqMan® primer-probe assays (Life technologies) were used:
as §1
Next, hMSCs were differentiated for 21 days in the presence of 1 ng/mL TGF-β1 alone (1 TGF-β1) or in combination with 10 μg/mL of GAG (heparin, HSPM, HS16+ve or HS16−ve) or with 10 ng/mL TGF-β1 (10 TGF-β1) as a positive control.

TGF-β1 = biological target: T1, TGF-β1 (Homo sapiens, UniProt P01137); assay: Differential scanning fluorimetry (DSF) of TGF-β1; format: binding
T1 construct: full length mature TGF-β1 is 112 amino acids in length
T1 sequence (P01137 279-390 limits assumed): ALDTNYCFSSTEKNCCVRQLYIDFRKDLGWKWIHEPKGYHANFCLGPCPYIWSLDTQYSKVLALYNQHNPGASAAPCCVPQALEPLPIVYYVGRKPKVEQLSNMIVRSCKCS
Experimental: DSF was performed on a 7500 Fast Real PCR System (software version 1.4, Applied Biosystems), as described previously (34,35). TGF-β1 (2.5 μM) was tested with or without heparin (25 μM). To facilitate the melting of TGF-β1, 10 mM of dithiothreitol (DTT) was added to the reaction mix. Experiments were run as previously described (34). First derivatives of the melting curves were calculated using Origin 7 (OriginLab Corp.) to determine the melting temperature of TGF-β1 under the various conditions.

[3] = tested on: TGF-β1 signaling (pSMAD2, pSMAD3) in hMSCs; assay: Western blotting of pSMAD2/pSMAD3 in hMSCs treated with TGF-β1 and GAG; format: cell-based, human; conditions: 6, 12, 24 and 48 h
Experimental: Primary hMSCs (Lonza) were isolated from the bone marrow mononuclear cells of a young healthy adult human donor by plastic adherence and characterized as previously described (30,31). The adherent cells were maintained in a basal media consisting of DMEM-low glucose (1000 mg/l, DMEM-LG) supplemented with 10% fetal calf serum, 100 U/ml penicillin, 100 μg/ml streptomycin and 2 mM L-glutamine, and cultured under standard conditions at 37° C. and 5% CO2 in a humidified atmosphere. Media replacement was every three days. Cells were detached with 0.125% trypsin/Versene (pH 7.0) upon reaching 75-80% confluence, and re-plated at a density of 3,000 cells/cm^2 under the same culture conditions. All experiments were carried out with cells at passage 5.
Human MSCs were cultured in 6-well plates in basal media for 24 h at a density of 10,000 cells/cm^2. TGF-β1 treatments were then prepared at either 1 ng/ml or 5 ng/ml alone or in the presence of either 10 μg/ml or 40 μg/ml of full length heparin, or 1 ng/ml of TGF-β1 with 10 μg/ml size-fractionated or selectively desulfated heparin, HS^PM, HS16+ or HS16−, and incubated at room temperature for 10 min before being added to the cells. Latent TGF-β1 (LTGF-β1) treatments were similarly prepared at 3.3 ng/ml alone or with 10 μg/ml of the various GAGs described above. For inhibitor studies, the cells were pre-treated for 30 min with 10 μM SB431542 (Sigma-Aldrich) or DMSO before treatment with TGF-β1. […] Samples were then immunoblotted with antibodies against SMAD2/3 (#3102, Cell Signaling), phosphorylated SMAD2 (pSMAD2, #3108, Cell Signaling), phosphorylated SMAD3 (pSMAD3, #9520, Cell Signaling) and actin (MAB1501R, Millipore). Densitometry was carried out using Quantity One software (version 4.6.6, Bio-Rad).

[4] = tested on: chondrogenic differentiation of hMSCs; assay: Alcian blue staining of chondrogenic micromass pellets; format: cell-based, human
Experimental: as §1

[5] = 10 ng/mL TGF-β1, days 3, 7, 14 and 21

TGF-β1: transforming growth factor-β1 protein (PeproTech)
wet weight of micromass pellets over time [1]: weight loss was less pronounced
Type II collagen transcripts ([2]; 10 ng/mL TGF-β1): only detectable in TGF-β1-treated pellets and undifferentiated hMSCs
type X collagen transcripts relative to control pellets ([2]; 10 ng/mL TGF-β1): extremely high levels
COMP expression relative to untreated control pellets [2, 5]: increased expression
SOX9 expression relative to untreated control pellets [2, 5]: increased expression
aggrecan expression relative to untreated control pellets ([2]; 10 ng/mL TGF-β1, days 7, 14 and 21): increased expression
COMP expression, high (10 ng/mL) TGF-β1 relative to low dose TGF-β1 alone ([2]; 21 days): did not significantly alter COMP expression
type X collagen expression, high TGF-β1 relative to low TGF-β1 ([2]; day 21): significant increase
melting temperature of TGF-β1 (TGF-β1; with 10 mM DTT, without heparin): 44 °C
melting temperature of TGF-β1 alone (TGF-β1; without DTT): 66 °C
pSMAD2 signal ([3]; 1 ng/mL TGF-β1): quite intense at 6 h post treatment, and started to subside from 12 h onwards
pSMAD2 signal ([3]; 5 ng/mL and 10 ng/mL TGF-β1): remain saturated across all the time points tested
pSMAD3 signal ([3]; 5 ng/mL and 10 ng/mL TGF-β1): returned to background levels by 24 h
GAG production by Alcian blue staining, 10 ng/mL vs 1 ng/mL TGF-β1 ([4]; 21 days): increase in GAG production and deposition; also recorded: modest increase in GAG production
GAG content by Alcian blue staining vs control pellets ([4]; day 21, 10 ng/mL TGF-β1): more GAGs

Source: patent US10596296B2, “Heparan sulphates” (Agency for Science, Technology and Research, priority 2014, dated 2020)
